Test results as given in patent US12226386B2, “Compositions and methods for treating biofilms” (The Regents of the University of California, priority 2018, dated 2025).
Like-named read-outs stand apart in the source and are kept apart here.

How the values were obtained:
[1] = system: S. aureus (MRSA) biofilms; experiment: in vitro biofilm disruption assay, bacterial; assay type: cell-based; settings: Staphylococcus aureus, 24 h
Experimental: In vitro biofilm formation was tested using two assays, sustained inhibition and disruption. Both assays assess biofilm formed on polystyrene plates. The first, tests the effects of amino acid solution on a developing biofilm, while the latter tests the effects of the solution on a pre-formed mature biofilm, both compared to media without supplemented amino acids.
(§1) Other amino acids in the blood of animals could combat bacterial and fungal biofilm and therefore may be useful in treating these bacterial and fungal infections that would lie on the external surfaces of infected animals such as humans and could also be used to combat these pathogens on instruments and surfaces that need to be treated. Two types of biofilm assays were performed: a sustained inhibition assay and a disruption assay. The sustained inhibition assay assessed the compound's ability to prevent biofilm development throughout all stages of biofilm formation, while the disruption assay assessed the compound's ability to break up an existing mature biofilm.
(§2) For fungal biofilm assays, all solutions were prepared in RPMI 1640 medium. All bacterial biofilm solutions were prepared in Tryptic Soy Broth (TSB), supplemented with 1% glucose (henceforth referred to as TSB-G). All subsequent procedures were performed in a manner that maintained sterility. A solution of each amino acid to be tested was prepared in weight to volume concentrations ranging from 0.1-5.0%. Amino acids were also tested in combinations. Compound solutions were homogenized with gentle agitation in the dark (4° C., 24 hours) before use.
Bacterial strains were streaked on Blood Agar plates (5% sheep blood in Tryptic Soy Agar) and incubated at 37° C. for 24 hours. A single colony from each strain to be tested was inoculated in a TSB broth and grown for 12 hours, at 37° C. shaking at 225 rpm. For the bacterial biofilm inhibition assays, 1 μL of saturated overnight cell culture was added to either 80 μL of TSB-G, or TSB-G supplemented with the amino acid compound solution to be tested, in a 384-well plate. The cells were allowed to adhere to the plate for 60 minutes at 37° C. without shaking. The media was carefully aspirated and 80 μL of TSB-G, or TSB-G supplemented with the amino acid compound solution was added to the plate. The plate was further incubated for 24 hours at 37° C. without shaking. Media was carefully aspirated and the biofilm was measured by optical density at 600 nm. Eight or twelve replicates were performed for each tested condition and the reported values are normalized to the control (TSB-G media only). For the bacterial biofilm disruption assays, 80 μL of TSB-G was added to the plate, along with 1 μL of overnight cell culture. The cells were allowed to adhere to the plate for 60 minutes at 37° C. with no shaking. The media was carefully aspirated and 80 μL of TSB-G was added to the plate. The plate was further incubated for 24 hours at 37° C. with no shaking. Media was carefully aspirated from the mature biofilm and 80 μL of TSB-G, or TSB-G supplemented with the amino acid to be tested, was gently added to the plate. The plate was further incubated for 24 hours at 37° C. without shaking. Media was aspirated and the biofilm was measured by optical density at 600 nm. Twelve replicates were performed for each tested condition and the reported values are normalized to the control (TSB-G media only).
For disruption assay, 80 μl of TSB-G was added to the plate, along with 1 μl of overnight cell culture. The cells were allowed to adhere to the plate for 60 minutes at 37° C. with no shaking. The media was carefully aspirated and 80 μl of TSB-G was added to the plate. The plate was further incubated for 24 hours at 37° C. with no shaking. Media was carefully aspirated from the mature biofilm and 80 μl of TSB-G, or TSB-G supplemented with the amino acid to be tested, was added drop wise to the plate. The plate was further incubated for 24 hours at 37° C. with no shaking. […]

[2] = system: bacteria (S. aureus) biofilm and fungal (C. albicans) biofilm; experiment: sustained inhibition biofilm assay, bacterial and fungal taken together; assay type: cell-based, Staphylococcus aureus; Candida albicans; settings: 1% amino acid
Experimental: as §1, §2
(§3) Fungal strains were streaked on Yeast Peptone Dextrose (YPD) agar plates and incubated at 30° C. for 48 hours. A single colony from each strain to be tested was inoculated into YPD broth and grown for 12 hours, at 30° C., shaking at 225 rpm. For the fungal biofilm inhibition assay, 1 μl of saturated overnight cell culture was added to either 80 μL of RPMI-1640 or RPMI-1640 supplemented with the amino acid compound solution to be tested, in a 384-well plate. […] Media was carefully aspirated and the biofilm was measured by optical density at 600 nm. […] Media was carefully aspirated and the biofilm was measured by optical density at 600 nm. […]
(§4) Bacterial strains were streaked on Blood Agar plates (5% sheep blood in Tryptic Soy Agar) and incubated at 37° C. for 24 hours. […] Media was carefully aspirated and the biofilm was measured by optical density at 600 nm. […]

[3] = system: bacteria (S. aureus) biofilm and fungal (C. albicans) biofilm; experiment: disruption biofilm assay, bacterial and fungal taken together; assay type: cell-based, Staphylococcus aureus; Candida albicans
Experimental: as §1, §2, §3, §4

[4] = disruption, S. aureus, 1% amino acid, p<0.001, read-out: Reduce B Biofilm
[5] = disruption, bacterial and fungal biofilm, 1% amino acid

| SMILES | inhibition at 1 % [1, 4] | Reduce Both [2] | Reduce Both [3, 5] | inhibition at 1 % ([1]; read-out: Reduce B Biofilm) | Reduce Both [3] |
| --- | --- | --- | --- | --- | --- |
| N[C@@H](CC(=O)O)C(=O)O [Aspartic Acid, L-aspartic acid] | > 30% | ●● (two dots [i.e. ●●] signifies major effect (greater than about 30% change)) | ●● (two dots [i.e. ●●] signifies major effect (greater than about 30% change)) |  |  |
| N[C@@H](CS)C(=O)O [Cysteine, L-cysteine] | > 30% | ●● (two dots [i.e. ●●] signifies major effect (greater than about 30% change)) | ●● (two dots [i.e. ●●] signifies major effect (greater than about 30% change)) |  |  |
| N[C@@H](CCC(=O)O)C(=O)O [Glutamic Acid, L-glutamic acid] |  | ●● (two dots [i.e. ●●] signifies major effect (greater than about 30% change)) |  | > 30% | ● (a single dot [i.e. ●] signifies minor effect (from about 10 to about 30% change)) |
